According to patent publication US20240059658A1 (Emory University, priority 2019, published 2024):

tested on: EU-1; experiment: WST cytotoxicity assay, cancer cell EU-1; format: cell-based, human; conditions: Homo sapiens, EU-1, EU-1; no other cell line named in the cell; read-out: Cancer cell (EU-1) cytotoxicity IC50
Protocol: This study used two ALL cell lines (EU-1 and EU-3) and three NB cell lines (NB-1643, SHEP1 and LA1-55N). All 5 cancer cell lines were established from pediatric ALL or NB patients and were well-characterized for their expression of MDM2 and p53-status, as reported previously. All cell lines were grown in standard culture medium (RPMI 1640 containing 10% FBS, 2 mmol/L L-glutamine, 50 U penicillin and 50 μg/mL streptomycin) at 37° C. in a humidified atmosphere containing 5% CO2.
The cytotoxic effect of MX 69 and MX69 analogs on cancer cells was determined using the water-soluble tetrazolium salt (WST) assay. Briefly, cells cultured in 96-well microtiter plates were treated with different concentrations of AQ-101 for a 20-h period. WST (25 μg/well) was then added and incubation continued for an additional 4 h, after which optical density (OD) was read with a microplate reader (test wavelength of 450 nm; reference wavelength of 620 nm).

Structure (SMILES) | IC50 [µM]
CC(C)C(=O)c1cccc(C2CC(=O)c3cc(S(=O)(=O)Nc4cccc(C(C)C)c4)ccc3N2)c1 (stereo not drawn) [Compound 69L139] | 0.66
CCc1cccc(NS(=O)(=O)c2ccc3c(c2)C(=O)CC(c2cccc(C(=O)N(C)C)c2)N3)c1 (stereo not drawn) [Compound 69L166] | 0.11
Cc1ccc(NS(=O)(=O)c2ccc3c(c2)C2OCC[C@@H]2[C@@H](c2ccc(C(=O)C(C)C)cc2)N3)cc1C (stereo partly drawn) [Compound 69L52c] | 2.4 to 2.5
Cc1ccc(NS(=O)(=O)c2cc3c(cc2Cl)N[C@@H](c2ccc(S(C)(=O)=O)cc2)[C@@H]2CC=C[C@H]32)cc1C [Compound 69L24] | > 50
CCc1cccc(NS(=O)(=O)c2ccc3c(c2)C(=O)C(F)C(c2cccc(C(=O)C(C)C)c2)N3)c1 (stereo not drawn) [Compound 69L168] | 0.34
CCc1cccc(NS(=O)(=O)c2ccc3c(c2)C(=O)CC(c2cccc(C(=O)C(C)C)c2)N3)c1 (stereo not drawn) [Compound 69L150, N-(3-ethylphenyl)-2-(3-isobutyrylphenyl)-4-oxo-1,2,3,4-tetrahydroquinoline-6-sulfonamide] | 0.04
Cc1ccc(NS(=O)(=O)c2ccc3c(c2)C2[C@@H](CCN2C(=O)OC(C)(C)C)C(c2ccc(S(C)(=O)=O)cc2)N3)cc1C (stereo partly drawn) [Compound 69L42] | 19.9
COC(=O)c1ccc([C@@H]2Nc3cc(Cl)c(S(=O)(=O)Nc4ccc(C)c(C)c4)cc3[C@H]3OCC[C@H]32)cc1 [Compound 69L26] | > 50
Cc1ccc(N(C)S(=O)(=O)c2ccc3c(c2)[C@H]2OCC[C@H]2[C@H](c2ccc(C(=O)C(C)C)cc2)N3)cc1C (stereo in doubt) [Compound 69L133, N-(3,4-dimethylphenyl)-4-(4-isobutyrylphenyl)-N-methyl-2,3,3a,4,5,9b-hexahydrofuro[3,2-c]quinoline-8-sulfonamide] | 1.58
Cc1cc(NS(=O)(=O)c2ccc3c(c2)C2OCC[C@H]2C(c2ccc(C(=O)C(C)C)cc2)N3)ccc1C(F)(F)F (stereo partly drawn) [Compound 69L89] | 7.2
COC(=O)c1ccc([C@@H]2Nc3ccc(S(=O)(=O)Nc4ccc(C)c(C)c4)cc3[C@H]3C=CC[C@H]32)cc1 [Compound 69L16] | 4.66
CC(=O)c1cccc(C2CC(=O)c3cc(S(=O)(=O)Nc4cccc(C(C)C)c4)ccc3N2)c1 (stereo not drawn) [Compound 69L135] | 0.15
CC(=O)c1ccc([C@@H]2Nc3ccc(S(=O)(=O)Nc4ccc(C)c(C)c4)cc3C3NCC[C@H]32)cc1 (stereo partly drawn) [Compound 69L50] | 4.1
CCC(=O)c1cccc(NS(=O)(=O)c2ccc3c(c2)C2OCC[C@H]2C(c2ccc(C(=O)C(C)C)cc2)N3)c1 (stereo partly drawn) [Compound 69L125, 4-(4-isobutyrylphenyl)-N-(3-propionylphenyl)-2,3,3a,4,5,9b-hexahydrofuro[3,2-c]quinoline-8-sulfonimide] | 1.48
COc1cc(NS(=O)(=O)c2ccc3c(c2)C(=O)CC(c2ccc(C(C)=O)cc2)N3)ccc1C (stereo not drawn) [Compound 69L165] | 8.9
Cc1ccc(NS(=O)(=O)c2ccc3c(c2)[C@H]2OCC[C@H]2C(c2ccc(B4OCC(C)(C)CO4)cc2)N3)cc1C (stereo partly drawn) [Compound 69L17] | 8.69
CCc1cccc(NS(=O)(=O)c2ccc3c(c2)[C@H]2OCC[C@H]2C(c2ccc(C(=O)C(C)C)cc2)N3)c1 (stereo partly drawn) [Compound 69L148] | 2.05
CCc1cccc(NS(=O)(=O)c2ccc3nc(-c4cccc(C(=O)C(C)C)c4)c(OC)cc3c2)c1 [Compound 69L167] | 3.6
CC(C)C(=O)c1ccc(C2Nc3ccc(S(=O)(=O)Nc4cccc5c4COC5=O)cc3[C@H]3OCC[C@@H]23)cc1 (stereo partly drawn) [Compound 69L146] | 3.81
Cc1ccc(NS(=O)(=O)c2ccc3c(c2)[C@H]2OCC[C@H]2C(c2ccc(S(C)(=O)=O)cc2)N3)cc1C (stereo partly drawn) [Compound 69L19] | 4.06
CC(C)C(=O)c1ccc(C2Nc3ccc(S(=O)(=O)Nc4cccc(C(C)C)c4)cc3[C@H]3OCC[C@@H]23)cc1 (stereo partly drawn) [Compound 69L134] | 6.53

Structure (SMILES) | IC50 [µM]
COc1cc(NS(=O)(=O)c2ccc3c(c2)C(=O)CC(c2cccc(C(C)=O)c2)N3)ccc1C (stereo not drawn) [Compound 69L164] | 0.71
CC(C)C(=O)c1ccc(C2Nc3ccc(S(=O)(=O)Nc4cccc(C(C)(C)C)c4)cc3[C@H]3OCC[C@@H]23)cc1 (stereo partly drawn) [Compound 69L136] | 6.16
CCO[C@H]1C[C@H](c2ccc(C(=O)OC)cc2)Nc2ccc(S(=O)(=O)Nc3ccc(C)c(C)c3)cc21 [Compound 69L32] | 7.28
COc1cc(NS(=O)(=O)c2ccc3c(c2)C(=O)CC(c2cccc(C(=O)N(C)C)c2)N3)ccc1C (stereo not drawn) [Compound 69L161] | 0.82
CC(=O)Nc1ccc(C2Nc3ccc(S(=O)(=O)Nc4ccc(C)c(C)c4)cc3C3OCC[C@@H]23)cc1 (stereo partly drawn) [Compound 69L51] | 4.5
CC(=O)c1cccc(NS(=O)(=O)c2ccc3c(c2)C2NCC[C@H]2C(c2ccc(C(=O)C(C)C)cc2)N3)c1 (stereo partly drawn) [Compound 69L130] | > 10
COC(=O)c1ccc([C@@H]2Nc3cc(Cl)c(S(=O)(=O)Nc4ccc(C)c(C)c4)cc3[C@H]3C=CC[C@H]32)cc1 [Compound 69L22] | 19.3
COC(=O)c1ccc([C@H]2Nc3ccc(S(=O)(=O)Nc4ccc(C)c(C)c4)cc3[C@H]3OCC[C@@H]23)cc1 [Compound 69L28] | 8.4 to 11.9
CC(=O)c1cccc(S(=O)(=O)Nc2ccc3c(c2)[C@H]2OCC[C@H]2C(c2ccc(C(=O)C(C)C)cc2)N3)c1 (stereo partly drawn) [Compound 69L163, 3-acetyl-N-(4-(4-isobutyrylphenyl)-2,3,3a,4,5,9b-hexahydrofuro[3,2-c]quinolone-8-yl)benzenesulfonamide] | 2.5
CC(C)C(=O)c1cccc(C2CC(=O)c3cc(S(=O)(=O)Nc4cccc(C#N)c4)ccc3N2)c1 (stereo not drawn) [Compound 69L155] | 1.45
CC(C)C(=O)c1cccc(C2CC(=O)c3cc(S(=O)(=O)Nc4ccc(Cl)c(Cl)c4)ccc3N2)c1 (stereo not drawn) [Compound 69L145] | 3.5
COC(=O)c1ccc([C@@H]2Nc3ccc(S(=O)(=O)Nc4ccc(C)c(C)c4)cc3[C@H]3OCC[C@H]32)cc1 [Compound 69L2] | 3.5 to 5.3
Cc1ccc(NS(=O)(=O)c2ccc3c(c2)C2NCC[C@H]2[C@H](c2ccc(C(=O)O)cc2)N3)cc1C (stereo partly drawn) [Compound 69L41] | > 50
O=S(=O)(Nc1ccc2c(c1)CCO2)c1ccc2c(c1)[C@H]1OCC[C@H]1C(c1ccccc1)N2 (stereo partly drawn) [Compound 69L118] | 0.15
Cc1ccc(NS(=O)(=O)c2ccc3c(c2)[C@H]2OCC[C@H]2C(c2ccc(C(=O)O)cc2)N3)cc1C (stereo partly drawn) [Compound 69L4] | > 50
Cc1ccc(NS(=O)(=O)c2ccc3c(c2)[C@H]2OCC[C@H]2C(c2ccc(C(C)C)cc2)N3)cc1C (stereo partly drawn) [Compound 69L31] | 4.24
COC(=O)c1ccc([C@H]2Nc3ccc(S(=O)(=O)Nc4ccc(C)c(C)c4)cc3C3NCC[C@H]32)cc1 (stereo partly drawn) [Compound 69L35] | 4.86
CC(=O)c1cccc(NS(=O)(=O)c2ccc3c(c2)C2NCC[C@H]2[C@H](c2ccc(C(=O)C(C)C)cc2)N3)c1 (stereo partly drawn) [69L130 cis] | > 10
Cc1ccc(NS(=O)(=O)c2ccc3c(c2)C2OCC[C@@H]2[C@H](c2ccc(C(=O)C(C)C)cc2)N3)cc1C (stereo partly drawn) [Compound 69L52d] | 0.5
Cc1ccc(NS(=O)(=O)c2ccc3c(c2)C2NCC[C@H]2C(c2c[nH]c4ccccc24)N3)cc1C (stereo partly drawn) [Compound 69L37] | 4.81
CCC(=O)c1cccc(NS(=O)(=O)c2ccc3c(c2)C(=O)CC(c2cccc(C(C)=O)c2)N3)c1 (stereo not drawn) [Compound 69L126, 2-(3-acetylphenyl)-4-oxo-N-(3-propionylphenyl)-1,2,3,4-tetrahydro-quinoline-6-sulfonamide] | 1.14
